In publication PMC8105311 (Scientific Reports, 2021):

Columns and labels:
[1] = cited from earlier work
[2] = Solubility of L-carnitine in water; format: physicochemical
mice = tested on: mice; design: method as in PMID 25488130; details: cited from earlier work
[3] = 195Pt NMR of ligand exchange of cisplatin in solution; format: physicochemical; details: for Detection of Pt species by 195Pt NMR: DMSO aq. equimolar to 50 wt% TMG aq., day 1
Method: ^195Pt NMR spectrometry and mass spectrometry
After leaving it at room temperature, the resulting solution was measured at Day 5 and Day 10. We used co-axial tubes and K2[PtCl4] in D2O (for adjusting shim) was in the inner tube.
(1 mL) was prepared and left for one day. The resulting solution was measured by ^195Pt NMR (Day 1; 25,000 scans). NaCl (80 mg) was added and stirred. The solution was left and measured (Day2–4; 25,000 scans). In the case of DMSO aq., the concentration of DMSO uesd was adjusted to be equimolar to 50 wt% TMG aq.

MDA-MB-231 cells = test: Anticancer efficiency of cisplatin (cell viability, CellTiter 96 Aqueous One Solution); format: cell-based, human; details: final 0.1-100 µM
Method: MDA-MB-231 human breast cancer cell was kindly gifted from Prof. Erik Sahai (The Francis-Crick Institute, UK) and described previously^7. The cells were grown and maintained as monolayer cultures in 5% CO2 and humidified atmosphere at 37 °C, using Dulbecco's modified Eagle medium (high glucose with L-glutamine and phenol red, Fujiﬁlm Wako Pure Chemical Corporation), 10 vol% fetal bovine serum (Sigma-Aldrich Co., Llc.), and penicillin–streptomycin solution (×100; Fujiﬁlm Wako Pure Chemical Corporation). The cells were subcultured every 3–5 days by using trypsin solution (0.5w/v% trypsin—5.3mmol/L EDTA·4Na solution without phenol red (×10), Fujiﬁlm Wako Pure Chemical Corporation).
Anticancer efficiency of cisplatin
MDA-MB-231 cells (5,000 cells/well) were seeded to each well of a 96-well plate and then pre-cultured for 24 h. […] The solutions were added to the media to be 100, 10, 1, and 0.1 µM. The cells were cultured for 72 h and the cell viability was investigated with CellTiter 96® Aqueous One Solution.
(§1) The platinating agent (10 mM) was added to the 50 wt% TMG aq. (1 mL) and solubilized by stirring for 1 h. The resulting solution was left for more than one day. The resulting solution was freeze-dried and a pale yellow powder was obtained.

[4] = Dissolution time of cisplatin/TMG powder vs native cisplatin powder; format: physicochemical; details: native cisplatin powder in 50 wt% TMG aq.
Method: as §1
The yellow precipitates are undissolved cisplatin.

Compound: C[S+](C)[O-] [DMSO, dimethyl sulfoxide]
- Kamlet-Taft β value (hydrogen bond basicity) [1]: 0.83

Compound: C[N+](C)(C)C[C@H](O)CC(=O)[O-] [L-carnitine]
- Solubility in water [2]: approximately 70 wt%

Compound: C[N+](C)(C)CC(=O)O [TMG, Trimethylglycine]
- Effect on nephrotoxicity when cisplatin is administered (mice): reduces nephrotoxicity

Compound: N.N.O.[Cl][Pt+] [[Pt(NH3)2Cl(H2O)]^+]
- Reversion to Pt(NH3)2Cl2 in the presence of NaCl ([3]; 50 wt% TMG aq., after NaCl addition): reverted to Pt(NH3)2Cl2
- Ratio of Pt species by 195Pt NMR ([3]; 50 wt% TMG aq., after NaCl addition, day 2): 2 mol%
- Ratio of Pt species by 195Pt NMR ([3]; 50 wt% TMG aq., after NaCl addition, day 3): 0 mol%
- Ratio of Pt species by 195Pt NMR ([3]; 50 wt% TMG aq., after NaCl addition, day 4): 0 mol%
- Ratio of Pt species by 195Pt NMR ([3]; 50 wt% TMG aq., left for 24 h (day 1), before NaCl addition): 17 mol%
- Detection of Pt species by 195Pt NMR [3]: not detected

Compound: N.N.[Cl][Pt][Cl] [cisplatin]
- MDA-MB-231 cell viability (MDA-MB-231 cells; 10 mM cisplatin stock in 50 wt% TMG aq., 72 h): decreased in a dose-dependent manner
- Anticancer effect (MDA-MB-231 cell viability) (MDA-MB-231 cells; cisplatin stock in 50 wt% L-carnitine aq., 72 h): retained the anticancer effect
- Anticancer effect (MDA-MB-231 cell viability) (MDA-MB-231 cells; cisplatin stock in DMSO, 72 h): abolished
- MDA-MB-231 cell viability (MDA-MB-231 cells; solution regenerated with water from freeze-dried cisplatin/TMG powder (10 mM cisplatin in 50 wt% TMG aq.)): killed MDA-MB-231 cells in a dose-dependent manner
- Ligand exchange (195Pt NMR) ([3]; 50 wt% TMG aq., immediately after dissolution): ligand exchange did not occur
- Chloride ligand exchanged ([3]; 50 wt% TMG aq., room temperature, after 10 days): 66 mol%
- Integral value of the signal of the emerging compound (Pt(NH3)2Cl2 signal fixed as 1.0) ([3]; 50 wt% TMG aq., room temperature, day 5): 1.25
- Integral value of the signal of the emerging compound (Pt(NH3)2Cl2 signal fixed as 1.0) ([3]; 50 wt% TMG aq., room temperature, day 10): 1.90
- Detection of Pt species by 195Pt NMR [3]: not detected
- Time required for dissolution [4]: approximately 1 h

Compound: O [water]
- Kamlet-Taft β value (hydrogen bond basicity) [1]: around 0.15

Compound: [Pt(NH3)Cl(DMSO)]^+
- Detection of Pt species by 195Pt NMR [3]: detected
- Reversion to Pt(NH3)2Cl2 in the presence of NaCl ([3]; DMSO aq., after NaCl addition): scarcely reverted to Pt(NH3)2Cl2
